PubChem BioAssay (NCI)
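A five-concentration, 48-hour dose response in 96-well plates underlies each endpoint, interpolated linearly between surrounding concentrations. Definition used: TGI = concentration required for complete inhibition of growth.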

What was measured:
Assay in all cases: NCI tumour cell line growth inhibition, 48 h
[1] = tested on: 786-0 renal
[2] = tested on: A498 renal
[3] = tested on: A549 NSCLC
[4] = tested on: ACHN renal
[5] = tested on: BT-549 breast
[6] = tested on: CAKI-1 renal
[7] = tested on: CCRF-CEM leukemia
[8] = tested on: COLO 205 colon
[9] = tested on: DU-145 prostate
[10] = tested on: EKVX NSCLC
[11] = tested on: HCC-2998 colon
[12] = tested on: HCT-116 colon
[13] = tested on: HCT-15 colon
[14] = tested on: HL-60(TB) leukemia
[15] = tested on: HOP-62 NSCLC
[16] = tested on: HOP-92 NSCLC
[17] = tested on: HS 578T breast
[18] = tested on: HT29 colon
[19] = tested on: IGROV1 ovarian
[20] = tested on: K-562 leukemia
[21] = tested on: KM12 colon
[22] = tested on: LOX IMVI melanoma
[23] = tested on: M14 melanoma
[24] = tested on: MALME-3M melanoma
[25] = tested on: MCF7 breast
[26] = tested on: MDA-MB-231 breast
[27] = tested on: MDA-MB-435
[28] = tested on: MDA-N
[29] = tested on: MOLT-4 leukemia
[30] = tested on: NCI-H226 lung
[31] = tested on: NCI-H23 lung
[32] = tested on: NCI-H460 lung
[33] = tested on: NCI-H522 lung
[34] = tested on: NCI/ADR-RES ovarian
[35] = tested on: OVCAR-3 ovarian
[36] = tested on: OVCAR-4 ovarian
[37] = tested on: OVCAR-5 ovarian
[38] = tested on: OVCAR-8 ovarian
[39] = tested on: PC-3 prostate
[40] = tested on: RPMI-8226 leukemia
[41] = tested on: RXF 393 renal
[42] = tested on: SF-268 CNS
[43] = tested on: SF-295 CNS
[44] = tested on: SF-539 CNS
[45] = tested on: SK-MEL-2 melanoma
[46] = tested on: SK-MEL-28 melanoma
[47] = tested on: SK-MEL-5 melanoma
[48] = tested on: SK-OV-3 ovarian
[49] = tested on: SN12C renal
[50] = tested on: SNB-19 CNS
[51] = tested on: SNB-75 CNS
[52] = tested on: SR leukemia
[53] = tested on: SW-620 colon
[54] = tested on: T-47D breast
[55] = tested on: TK-10 renal
[56] = tested on: U251 CNS
[57] = tested on: UACC-257 melanoma
[58] = tested on: UACC-62 melanoma
[59] = tested on: UO-31 renal

COc1ccc(NC(=S)N=Nc2c(O)[nH]c3ccccc23)cc1 showed a TGI [1] of over 55.9 µM, a TGI [2] of over 83.3 µM and a TGI [3] of over 100 µM. For the same molecule, the TGI [4] was over 95.4 µM, the TGI [5] was 33.2 µM and the TGI [6] was 98.3 µM. The TGI [7] was over 100 µM, the TGI [8] was over 100 µM and the TGI [9] was over 100 µM. The TGI [10] was over 100 µM, the TGI [11] was over 100 µM and the TGI [12] was over 100 µM. The TGI [13] was over 100 µM, the TGI [14] was over 100 µM and the TGI [15] was over 45.5 µM. For the same molecule, the TGI [16] was over 78.7 µM, the TGI [17] was over 100 µM and the TGI [18] was over 100 µM. For the same molecule, the TGI [19] was over 100 µM, the TGI [20] was over 100 µM and the TGI [21] was over 100 µM. It also gave a TGI [22] of over 100 µM, a TGI [23] of over 100 µM and a TGI [24] of over 42.8 µM. For the same molecule, the TGI [25] was over 100 µM, the TGI [26] was over 90.8 µM and the TGI [27] was over 100 µM. The TGI [28] was over 100 µM, the TGI [29] was over 100 µM and the TGI [30] was over 100 µM. The TGI [31] was over 100 µM, the TGI [32] was over 100 µM and the TGI [33] was over 100 µM. The TGI [34] was over 42.6 µM, the TGI [35] was over 58.6 µM and the TGI [36] was over 95.2 µM. For the same molecule, the TGI [37] was over 100 µM, the TGI [38] was over 76.2 µM and the TGI [39] was over 70 µM. The TGI [40] was over 100 µM, the TGI [41] was over 61 µM and the TGI [42] was over 100 µM. It also gave a TGI [43] of over 58.5 µM, a TGI [44] of over 70.4 µM and a TGI [45] of over 76.4 µM. It also gave a TGI [46] of over 100 µM, a TGI [47] of over 100 µM and a TGI [48] of over 68.8 µM. It also gave a TGI [49] of over 89 µM, a TGI [50] of over 100 µM and a TGI [51] of over 78.8 µM. It also gave a TGI [52] of over 100 µM, a TGI [53] of over 100 µM and a TGI [54] of over 100 µM. For the same molecule, the TGI [55] was over 79 µM, the TGI [56] was over 59.9 µM and the TGI [57] was over 100 µM. The TGI [58] was over 100 µM and the TGI [59] was over 100 µM.
